The structures appear in SMILES notation.

Assay [1] has as its target T1, Human immunodeficiency virus type 1 protease (Human immunodeficiency virus 1, UniProt Q72874). The assay is described as follows: Inhibition of recombinant HIV-1 protease measured by fluorometric assay.
The target of assay [2] is T1, Human immunodeficiency virus type 1 protease. The assay is described as follows: Inhibition of HIV-1 protease by fluorometric assay.

The term Ki denotes a measure of affinity in units of concentration, obtained from inhibition or displacement. With `C/C(=N\O)c1cccc(CN2[C@H](COc3ccccc3)[C@H](O)[C@@H](O)[C@@H](COc3ccccc3)N(Cc3cccc(/C(C)=N/O)c3)S2(=O)=O)c1`, the Ki was 3.4 nM in assay [1] and 3.39 nM in assay [2].
On to `O=C(CN1[C@@H](COc2ccccc2)[C@@H](O)[C@H](O)[C@H](COc2ccccc2)N(Cc2cccc(-c3cccs3)c2)S1(=O)=O)Nc1nccs1`, for which the Ki in assay [1] is 140 nM; in assay [2], 141 nM.
Taken in the same sequence, the figures for `O=C(CN1[C@@H](COc2ccccc2)[C@@H](O)[C@H](O)[C@H](COc2ccccc2)N(Cc2cccc(I)c2)S1(=O)=O)Nc1nccs1` were 510 nM and 513 nM.
Taken in the same sequence, the figures for `O=S1(=O)N(Cc2ccccc2)[C@@H](COc2ccccc2)[C@@H](O)[C@H](O)[C@H](COc2ccccc2)N1Cc1cccc(-c2cccs2)c1` were 86 nM and 85.1 nM.
Taken in the same sequence, the figures for `O=C(CN1[C@@H](COc2ccccc2)[C@@H](O)[C@H](O)[C@H](COc2ccccc2)N(Cc2ccc(-c3cccs3)cc2)S1(=O)=O)Nc1nccs1` were 1800 nM and 1780 nM.
As for `O=S1(=O)N(Cc2ccc(-c3cccs3)cc2)[C@@H](COc2ccccc2)[C@@H](O)[C@H](O)[C@H](COc2ccccc2)N1Cc1cccc(-c2cccs2)c1`, the Ki is 6000 nM in assay [1] and 6030 nM in assay [2].
`O=S1(=O)N(Cc2cccc(I)c2)[C@@H](COc2ccccc2)[C@@H](O)[C@H](O)[C@H](COc2ccccc2)N1Cc1cccc(I)c1`: the Ki in assay [1] was 93 nM; in assay [2] it was 93.3 nM.
As to `O=S1(=O)N(Cc2ccccc2)[C@H](COc2ccccc2)[C@H](O)[C@@H](O)[C@@H](COc2ccccc2)N1Cc1ccccc1`, the values for the Ki in assay [1] and in assay [2] were 23 nM and 22.9 nM, respectively.
Taken in the same sequence, the figures for `O=S1(=O)N(Cc2cccc(CCO)c2)[C@@H](COc2ccccc2)[C@@H](O)[C@H](O)[C@H](COc2ccccc2)N1Cc1cccc(CCO)c1` were 43 nM and 42.7 nM.
Taken in the same sequence, the figures for `O=S1(=O)N(Cc2ccc(-c3cccs3)cc2)[C@@H](COc2ccccc2)[C@@H](O)[C@H](O)[C@H](COc2ccccc2)N1Cc1ccc(-c2cccs2)cc1` were 920 nM and 912 nM.
Taken in the same sequence, the figures for `O=S1(=O)N(Cc2cccc(-c3cccs3)c2)[C@@H](COc2ccccc2)[C@@H](O)[C@H](O)[C@H](COc2ccccc2)N1Cc1cccc(-c2cccs2)c1` were 2200 nM and 2190 nM.
For `CC(=O)c1cccc(CN2[C@@H](COc3ccccc3)[C@@H](O)[C@H](O)[C@H](COc3ccccc3)N(Cc3cccc(C(C)=O)c3)S2(=O)=O)c1`, the Ki is 59 nM in assay [1] and 58.9 nM in assay [2].
The corresponding values for `COC(=O)c1ccc(CN2[C@@H](COc3ccccc3)[C@@H](O)[C@H](O)[C@H](COc3ccccc3)N(Cc3ccc(C(=O)OC)cc3)S2(=O)=O)cc1` are 84 nM and 83.2 nM.
Taken in the same sequence, the figures for `COC(Cc1cccc(CN2[C@@H](COc3ccccc3)[C@@H](O)[C@H](O)[C@H](COc3ccccc3)N(Cc3cccc(CC(OC)OC)c3)S2(=O)=O)c1)OC` were 540 nM and 537 nM.
Taken in the same sequence, the figures for `O=S1(=O)N(Cc2ccc(CO)cc2)[C@@H](COc2ccccc2)[C@@H](O)[C@H](O)[C@H](COc2ccccc2)N1Cc1ccc(CO)cc1` were 3.1 nM and 3.09 nM.
Regarding `CNC(=O)CN1[C@@H](COc2ccccc2)[C@@H](O)[C@H](O)[C@H](COc2ccccc2)N(CC(=O)NC)S1(=O)=O`, the Ki in assay [1] is 25000 nM; in assay [2] it was 25100 nM.
The corresponding values for `O=S1(=O)N(Cc2ccccc2)[C@@H](COc2ccccc2)[C@@H](O)[C@H](O)[C@H](COc2ccccc2)N1Cc1ccc(-c2cccs2)cc1` are 63 nM and 63.1 nM.
Taken in the same sequence, the figures for `CNC(=O)CN1[C@@H](COc2ccccc2)[C@@H](O)[C@H](O)[C@H](COc2ccccc2)N(Cc2ccccc2)S1(=O)=O` were 1400 nM and 1410 nM.
The corresponding values for `CN1[C@@H](COc2ccccc2)[C@@H](O)[C@H](O)[C@H](COc2ccccc2)N(C)S1(=O)=O` are 710 nM and 708 nM.
Take `O=C1N(Cc2ccccc2)[C@H](COc2ccccc2)[C@H](O)[C@@H](O)[C@@H](COc2ccccc2)N1Cc1ccccc1`: the inhibition constant Ki in assay [1] was 11 nM.
For `CN1[C@@H](COc2ccccc2)[C@@H](O)[C@H](O)[C@H](COc2ccccc2)N(Cc2ccccc2)S1(=O)=O`, the Ki in assay [1] is 510 nM; in assay [2], 513 nM.
The corresponding values for `CNC(=O)c1cccc(CN2[C@@H](COc3ccccc3)[C@@H](O)[C@H](O)[C@H](COc3ccccc3)N(Cc3cccc(C(=O)NC)c3)S2(=O)=O)c1` are 39 nM and 38.9 nM.
The corresponding values for `O=C(CN1[C@@H](COc2ccccc2)[C@@H](O)[C@H](O)[C@H](COc2ccccc2)N(Cc2ccccc2)S1(=O)=O)Nc1nccs1` are 350 nM and 347 nM.

The values are drawn from ChEMBL document CHEMBL1134693, “Synthesis and comparative molecular field analysis (CoMFA) of symmetric and nonsymmetric cyclic sulfamide HIV-1 protease inhibitors” (J Med Chem, 2001).
